Assay results as given in the SangsterLogP compilation.

Test: method code SF-AS, from PMID: 754638
Conditions: not given

SMILES	logP
C=CCS(=O)(=O)c1cc(OC)c(OC)c(OC)c1	1.34
COc1cc(S(=O)(=O)CCC(C)C)cc(OC)c1OC	2.12
COc1cc(S(=O)(=O)CCN2CCOCC2)cc(OC)c1OC	1.29

The remaining lines, values ahead:

logP	SMILES
1.05	CCS(=O)(=O)c1cc(OC)c(OC)c(OC)c1
0.18	COc1cc(S(=O)(=O)CCO)cc(OC)c1OC
1.65	COc1cc(S(=O)(=O)CC(O)c2ccccc2)cc(OC)c1OC (centres undefined)
1.56	CCCS(=O)(=O)c1cc(OC)c(OC)c(OC)c1

Same assay, conditions: pH 7.3

logD	SMILES
2.05	CCCCN(C)CCS(=O)(=O)c1cc(OC)c(OC)c(OC)c1
1.6	COc1cc(S(=O)(=O)CCN2CCCCC2)cc(OC)c1OC
